Laboratory results: PubChem BioAssay AID330 (DTP/NCI, 2004)
Several values for one entry are separate records, joined by “and”; a condition that tells them apart may be missing. Equal values may be shown once. Inconclusive results and toxic doses are left out. The calls were made as follows: active = survival T/C of 150% or more; inactive = T/C below 125% in these data.

System: P388 leukemia ip, CD2F1 mice, survival T/C
Test: NCI In Vivo Anticancer Drug Screen. Data for tumor model P388 Leukemia (intraperitoneal) in CD2F1 (CDF1) mice
Conditions: endpoint: median survival time, higher = longer survival
Method in brief: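 Mice carrying the transplanted tumor received test compound or vehicle. Survival was recorded in each group, and the value is the treated-group measurement divided by that of the vehicle-treated control group.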

[1] = dose: 50.0 mg/kg/injection, schedule: Q01DX005 (ip), vehicle: Klucel (hydroxypropylcellulose) (HPC)
[2] = dose: 100.0 mg/kg/injection, schedule: Q01DX005 (ip), vehicle: Klucel (hydroxypropylcellulose) (HPC)
[3] = dose: 6.25 mg/kg/injection, schedule: Q01DX009 (ip), vehicle: saline with Tween-80
[4] = dose: 12.5 mg/kg/injection, schedule: Q01DX009 (ip), vehicle: saline with Tween-80
[5] = dose: 25.0 mg/kg/injection, schedule: Q01DX009 (ip), vehicle: saline with Tween-80
[6] = dose: 3.13 mg/kg/injection, schedule: Q04DX003 (ip), vehicle: water
[7] = dose: 50.0 mg/kg/injection, schedule: Q01DX005 (ip), vehicle: saline with Tween-80
[8] = dose: 100.0 mg/kg/injection, schedule: Q01DX005 (ip), vehicle: saline with Tween-80
[9] = dose: 200.0 mg/kg/injection, schedule: Q01DX005 (ip), vehicle: saline with Tween-80
[10] = dose: 50.0 mg/kg/injection, schedule: Q01DX009 (ip), vehicle: Klucel (hydroxypropylcellulose) (HPC)
[11] = dose: 100.0 mg/kg/injection, schedule: Q01DX009 (ip), vehicle: Klucel (hydroxypropylcellulose) (HPC)
[12] = dose: 60.0 mg/kg/injection, schedule: Q01DX005 (ip), vehicle: saline with Tween-80
[13] = dose: 120.0 mg/kg/injection, schedule: Q01DX005 (ip), vehicle: saline with Tween-80
[14] = dose: 50.0 mg/kg/injection, schedule: Q01DX005 (ip), vehicle: saline
[15] = dose: 100.0 mg/kg/injection, schedule: Q01DX005 (ip), vehicle: saline
[16] = dose: 200.0 mg/kg/injection, schedule: Q01DX005 (ip), vehicle: saline
[17] = dose: 60.0 mg/kg/injection, schedule: Q01DX005 (ip), vehicle: Klucel (hydroxypropylcellulose) (HPC)
[18] = dose: 120.0 mg/kg/injection, schedule: Q01DX005 (ip), vehicle: Klucel (hydroxypropylcellulose) (HPC)
[19] = dose: 240.0 mg/kg/injection, schedule: Q01DX005 (ip), vehicle: Klucel (hydroxypropylcellulose) (HPC)

Measured: T/C

NC(=Nc1ccc(Cl)cc1)NN=C(c1ccc(Cl)cc1)c1ccc(Cl)cc1
inactive: dose: 25.0 mg/kg/injection, schedule: Q04DX002 (ip), vehicle: saline with Tween-80 104 % of control | dose: 50.0 mg/kg/injection, schedule: Q04DX002 (ip), vehicle: saline with Tween-80 101 % of control | dose: 100.0 mg/kg/injection, schedule: Q04DX002 (ip), vehicle: saline with Tween-80 102 % of control | dose: 200.0 mg/kg/injection, schedule: Q04DX002 (ip), vehicle: saline with Tween-80 100 % of control | dose: 400.0 mg/kg/injection, schedule: Q04DX002 (ip), vehicle: saline with Tween-80 113 % of control

CN1CCc2c1n(-c1ccccc1)c(=S)n(-c1ccccc1)c2=S
inactive: [1] 107 % of control | [2] 100 % of control | dose: 200.0 mg/kg/injection, schedule: Q01DX005 (ip), vehicle: Klucel (hydroxypropylcellulose) (HPC) 98 % of control

C=C1C2CC[C@H]3C4(C)CCCC(C)(C(=O)O)[C@H]4CCC3(C2)[C@@H]1OC(C)=O (some centres not stated)
inactive: dose: 3.5 mg/kg/injection, schedule: Q01DX005 (ip), vehicle: Klucel (hydroxypropylcellulose) (HPC) 108 % of control | dose: 7.0 mg/kg/injection, schedule: Q01DX005 (ip), vehicle: Klucel (hydroxypropylcellulose) (HPC) 97 % of control | dose: 14.0 mg/kg/injection, schedule: Q01DX005 (ip), vehicle: Klucel (hydroxypropylcellulose) (HPC) 100 % of control | dose: 25.0 mg/kg/injection, schedule: Q01DX005 (ip), vehicle: Klucel (hydroxypropylcellulose) (HPC) 88 % of control | dose: 28.0 mg/kg/injection, schedule: Q01DX005 (ip), vehicle: Klucel (hydroxypropylcellulose) (HPC) 94 % of control | [1] 90 % of control | [2] 90 % of control

CC(=O)c1cc(I)c(O)c2ncccc12
inactive: [3] 97 % of control | [4] 94 % of control | [5] 98 % of control

C1=C[N-]c2c3c(ccc2=C1)=CC=C[N-]3.N#[O+].O.O=N[O-].O=N[O-].[Ru+2]
inactive: [6] 107 % of control | dose: 12.5 mg/kg/injection, schedule: Q04DX003 (ip), vehicle: water 121 % of control

CCOC(=O)CS(=O)(=O)CCS(=O)(=O)CC(=O)OCC
inactive: dose: 50.0 mg/kg/injection, schedule: Q01DX009 (ip), vehicle: saline 95 % of control | dose: 100.0 mg/kg/injection, schedule: Q01DX009 (ip), vehicle: saline 97 % of control | dose: 200.0 mg/kg/injection, schedule: Q01DX009 (ip), vehicle: saline 102 % of control

Nc1cc(=O)c2n[nH]nc2[nH]1
inactive: dose: 50.0 mg/kg/injection, schedule: Q04DX003 (ip), vehicle: saline with Tween-80 100 % of control | dose: 100.0 mg/kg/injection, schedule: Q04DX003 (ip), vehicle: saline with Tween-80 108 % of control | dose: 200.0 mg/kg/injection, schedule: Q04DX003 (ip), vehicle: saline with Tween-80 108 % of control | dose: 400.0 mg/kg/injection, schedule: Q04DX003 (ip), vehicle: saline with Tween-80 107 % of control

O=C1C=CC(=O)c2c(O)c3c(c(O)c21)C[C@H](O)[C@H](O)[C@@H]3O
inactive: dose: 1.56 mg/kg/injection, schedule: Q04DX003 (ip), vehicle: water 98 % of control | [6] 92 % of control | dose: 6.25 mg/kg/injection, schedule: Q04DX003 (ip), vehicle: water 102 % of control

Cc1ccccc1N1C(=O)C(C)(C)OC1=S
inactive: [7] 97 % of control | [8] 99 % of control | [9] 103 % of control

O=C(O)c1ccc2c3c(ccc(C(=O)O)c13)CC2
inactive: dose: 25.0 mg/kg/injection, schedule: Q01DX009 (ip), vehicle: Klucel (hydroxypropylcellulose) (HPC) 105 % of control | [10] 102 % of control | [11] 99 % of control

CN(C)CCN1C(=O)c2c(c3cccn3c3c2cnn3-c2ccccc2)C1=O
inactive: [12] 100 % of control | [13] 102 % of control | dose: 240.0 mg/kg/injection, schedule: Q01DX005 (ip), vehicle: saline with Tween-80 100 % of control

NC(CS(=O)c1ccc(Cl)cc1)C(=O)O (configuration not stated)
inactive: [3] 95 % of control | [4] 95 % of control | [5] 100 % of control

FC(F)(F)COP(OCC(F)(F)F)c1ccccc1
inactive: [7] 106 % of control | [8] 111 % of control | [9] 111 % of control

CSC(=C[N+](=O)[O-])SC
inactive: dose: 3.13 mg/kg/injection, schedule: Q01DX009 (ip), vehicle: water 100 % of control | dose: 6.25 mg/kg/injection, schedule: Q01DX009 (ip), vehicle: water 105 % of control | dose: 12.5 mg/kg/injection, schedule: Q01DX009 (ip), vehicle: water 96 % of control | dose: 25.0 mg/kg/injection, schedule: Q01DX009 (ip), vehicle: water 104 % of control

CC(=O)OC(C)C(=O)NCC(C)O (configuration not stated)
inactive: dose: 25.0 mg/kg/injection, schedule: Q01DX005 (ip), vehicle: saline 100 % of control | [14] 103 % of control | [15] 98 % of control | [16] 100 % of control

NC1=C(O)C(=O)C(c2ccc3c(c2)OCO3)O1 (configuration not stated)
inactive: [17] 92 % of control | [18] 95 % of control | [19] 91 % of control

CC1(C)CC(=O)C(C(c2ccc3c(c2)OCO3)N2CCOCC2)C(=O)C1 (configuration not stated)
inactive: [17] 117 % of control | [18] 109 % of control

C/C(=N\NC(=S)N1CCN(c2ccccn2)CC1)c1ccccn1
inactive: dose: 12.5 mg/kg/injection, schedule: Q01DX005 (ip), vehicle: water 103 % of control | dose: 25.0 mg/kg/injection, schedule: Q01DX005 (ip), vehicle: water 108 % of control

CN1CCCC1=NCCN=C1CCCN1C
inactive: [14] 117 % of control | [15] 99 % of control | [16] 98 % of control

CCSc1ccc2c3c(cccc13)C(=O)N(CCc1ccccn1)C2=O
inactive: [10] 98 % of control | [11] 99 % of control | dose: 200.0 mg/kg/injection, schedule: Q01DX009 (ip), vehicle: Klucel (hydroxypropylcellulose) (HPC) 92 % of control

C=CC1(OC)CC1CO (configuration not stated)
inactive: dose: 25.0 mg/kg/injection, schedule: Q01DX001 (ip), vehicle: Klucel (hydroxypropylcellulose) (HPC) 99 % of control | dose: 50.0 mg/kg/injection, schedule: Q01DX001 (ip), vehicle: Klucel (hydroxypropylcellulose) (HPC) 102 % of control | dose: 100.0 mg/kg/injection, schedule: Q01DX001 (ip), vehicle: Klucel (hydroxypropylcellulose) (HPC) 91 % of control and 93 % of control | dose: 200.0 mg/kg/injection, schedule: Q01DX001 (ip), vehicle: Klucel (hydroxypropylcellulose) (HPC) 95 % of control

Cc1ccc2cccc(CC(=O)NN)c2c1
inactive: [12] 104 % of control | [13] 97 % of control

CCN(CC)CCC(=O)c1cccc2ccccc12
inactive: dose: 25.0 mg/kg/injection, schedule: Q01DX005 (ip), vehicle: saline with Tween-80 100 % of control | [7] 106 % of control | [8] 102 % of control

O=C(O)CCCCCCCCCCCCCCC1C=CCC1 (configuration not stated)
inactive: dose: 100.0 mg/kg/injection, schedule: Q01DX001 (ip), vehicle: saline 101 % of control | dose: 200.0 mg/kg/injection, schedule: Q01DX001 (ip), vehicle: saline 100 % of control | dose: 400.0 mg/kg/injection, schedule: Q01DX001 (ip), vehicle: saline 98 % of control

CCOC(=O)c1ccc2c(c1)NCc1cccc(OC)c1O2
inactive: [17] 100 % of control | [18] 103 % of control | [19] 100 % of control

CC(=O)NC1C=CC(=O)O1 (configuration not stated)
inactive: dose: 2.1 mg/kg/injection, schedule: Q01DX010 (ip), vehicle: saline 104 % of control

CC12C3=CC=C4C=CC=C(c5ccccc5C1=CC=C3)C42C (configuration not stated)
inactive: dose: 50.0 mg/kg/injection, schedule: Q04DX002 (ip), vehicle: Klucel (hydroxypropylcellulose) (HPC) 100 % of control | dose: 100.0 mg/kg/injection, schedule: Q04DX002 (ip), vehicle: Klucel (hydroxypropylcellulose) (HPC) 111 % of control | dose: 200.0 mg/kg/injection, schedule: Q04DX002 (ip), vehicle: Klucel (hydroxypropylcellulose) (HPC) 107 % of control

C=C(C)C1CC=C(C)C(OCCN(CC)CC)C1 (configuration not stated)
inactive: [1] 100 % of control | [2] 103 % of control
